This note sets out measurements from patent US20080182859A1 (Curis, Inc., priority 2006, published 2008).

Counter-ions that a name gives are not always drawn.

Holding throughout (assay type): cell-based
Assay [1] concerns sonic hedgehog pathway. Put plainly: Hedgehog pathway Gli-luciferase reporter assay, TM3 cells. The conditions noted are these: TM3 mouse Leydig cells. The text has this:
(§1) Mouse (TM3: mouse Leydig cells; S12: mouse embryonic mesenchymal cells) and human (Daoy: human medulloblastoma cell; HepM: human embryonic palatal mesenchymal cell) cell lines are used to screen small molecules for their ability to modulate the activity of the sonic hedgehog pathway (Table 1, Table 2, and Table 3). Stable hedgehog pathway reporter cell lines are established by specific antibiotic selection following transfection of a reporter plasmid containing a luciferase gene located directly downstream from the gli promoter. Consequently, any observable changes in cellular luciferase activity may be attributed to changes in sonic hedgehog pathway activity in mouse and human cells, respectively, since gli is the major by-product of this pathway. To calculate activity, we generate an eleven point dose curve for each compound using 1:3 dilutions in 96 well assay plates. Each plate tested also contains low and high control to establish maximal pathway activation so to establish/compare a percentage activation of each tested compound (AMAX) on respective plates. Also we calculate EC50 values, or a concentration where the pathway will be exactly 50% activated, for each tested compound to determine potency. In these cell lines, compounds that register >20% AMAX values are considered active.
(§2) Stable hedgehog pathway reporter cell lines are established following specific antibiotic selection following transfection of a reporter plasmid In short, typically cells are plated in MicroTiter-plates at 10,000-20,000 cells per well, in growth media (containing 10%-20% FBS). After 48-72 hrs (HGL and DGL respectively) the media in the assay plates is switched to low-serum containing media (0.5% FBS). At that time compounds are added (at 1-5 μM) to the assay plates, in the presence or absence of hedgehog protein (octyl-modified version; 1-5 ng/ml). After another 24 hrs of incubation, the media from the assay plates is discarded and replaced with luciferase assay-mix. Subsequently, plates are incubated at RT for ˜15-30 mins and then read in a luminometer. [note: addition of the Hedgehog protein, although not critical, will sensitize the assay allowing the identification of weak actives].

The test system of assay [2] is sonic hedgehog pathway. Briefly: Human hedgehog reporter assay Daoy-GliLuc (DGL). The settings on record: Daoy human medulloblastoma cells, Gli-luciferase reporter; read-out: Daoy Avg. EC50.
Excerpt: as §1, §2

Assay [3] relates to sonic hedgehog pathway. Put plainly: Human hedgehog reporter assay HEPM-GliLuc (HGL). The settings on record: HepM human embryonic palatal mesenchymal cells, Gli-luciferase reporter.
Excerpt: as §1, §2

For the molecule `CN[C@H]1CC[C@@H](N(Cc2cc(-c3ccnc(C)c3)ccc2OC)C(=O)c2sc3c(F)ccc(F)c3c2Cl)CC1` [Compound 345, 3-Chloro-4,7-difluoro-benzo[b]thiophene-2-carboxylic acid [2-methoxy-5-(2-methyl-pyridin-4-yl)-benzyl]-(4-methylamino-cyclohexyl)-amide dihydrochloride], the EC50 in the assay on sonic hedgehog pathway [1], with sonic hedgehog pathway [2] and with sonic hedgehog pathway [3] was below 50 nM in each case.
Regarding `CN[C@H]1CC[C@@H](N(Cc2cc(-c3cc(C)nc(C)c3)ccc2OC)C(=O)c2sc3c(F)ccc(F)c3c2Cl)CC1` [Compound 350, 3-Chloro-4,7-difluoro-benzo[b]thiophene-2-carboxylic acid [5-(2,6-dimethyl-pyridin-4-yl)-2-methoxy-benzyl]-(4-methylamino-cyclohexyl)-amide dihydrochloride], the values for the 50% effective concentration (EC50) in the assay on sonic hedgehog pathway [1], in the assay on sonic hedgehog pathway [2] and in the assay on sonic hedgehog pathway [3] were below 50 nM, below 50 nM and 50 to 250 nM, respectively.
For `CCOc1ccc(-c2cnc(NC)nc2)cc1CN(C(=O)c1sc2ccccc2c1Cl)[C@H]1CC[C@H](NC)CC1` [Compound 402, 3-Chloro-benzo[b]thiophene-2-carboxylic acid [2-ethoxy-5-(2-methylamino-pyrimidin-5-yl)-benzyl]-(4-methylamino-cyclohexyl)-amide dihydrochloride], the 50% effective concentration (EC50) in the assay with sonic hedgehog pathway [1] lay in the range of 1000 to 2500 nM; in the assay with sonic hedgehog pathway [2] it was 50 to 250 nM; in the assay with sonic hedgehog pathway [3], 250 to 1000 nM.
Take `CCOc1ccc(-c2ccc(NC)nc2)cc1CN(C(=O)c1sc2ccccc2c1Cl)[C@H]1CC[C@H](NC)CC1` [Compound 399, 3-Chloro-benzo[b]thiophene-2-carboxylic acid [2-ethoxy-5-(6-methylamino-pyridin-3-yl)-benzyl]-(4-methylamino-cyclohexyl)-amide dihydrochloride]: the EC50 with sonic hedgehog pathway [1] was 1000 to 2500 nM; with sonic hedgehog pathway [2], 250 to 1000 nM; in the assay with sonic hedgehog pathway [3], 1000 to 2500 nM.
Consider `CCOc1ccc(-c2cnc(N)nc2)cc1CN(C(=O)c1sc2ccccc2c1Cl)[C@H]1CC[C@@H](NC)CC1` [Compound 325, 3-Chloro-benzo[b]thiophene-2-carboxylic acid [5-(2-amino-pyrimidin-5-yl)-2-ethoxy-benzyl]-(4-methylamino-cyclohexyl)-amide dihydrochloride], for which the values for the EC50 in the assay on sonic hedgehog pathway [1], in the assay on sonic hedgehog pathway [2] and with sonic hedgehog pathway [3] were 250 to 1000 nM, below 50 nM and 50 to 250 nM, respectively.
Consider `CN[C@H]1CC[C@@H](N(Cc2cc(-c3ccc(C(=O)C(F)(F)F)cc3)ccc2OC)C(=O)c2sc3ccccc3c2Cl)CC1` [Compound 302, 3-Chloro-benzo[b]thiophene-2-carboxylic acid [4-methoxy-4′-(2,2,2-trifluoro-acetyl)-biphenyl-3-ylmethyl]-(4-methylamino-cyclohexyl)-amide trifluoroacetate], for which the EC50 in the assay with sonic hedgehog pathway [1], with sonic hedgehog pathway [2] and in the assay with sonic hedgehog pathway [3] was below 50 nM in each case.
Take `CN[C@H]1CC[C@@H](N(Cc2cc(-c3ccc(N)nc3)ccc2OC)C(=O)c2sc3c(F)ccc(F)c3c2Cl)CC1` [352 (R18)]: the 50% effective concentration (EC50) with sonic hedgehog pathway [1], in the assay with sonic hedgehog pathway [2] and in the assay on sonic hedgehog pathway [3] was below 50 nM throughout.
As to `CN[C@H]1CC[C@@H](N(Cc2cc(-c3cnccn3)ccc2OC)C(=O)c2sc3ccccc3c2Cl)CC1` [330 (R22)], the EC50 in the assay on sonic hedgehog pathway [1] was 50 to 250 nM; in the assay with sonic hedgehog pathway [2], below 50 nM; with sonic hedgehog pathway [3] it was 50 to 250 nM.
For `CN[C@H]1CC[C@@H](N(Cc2cc(-c3cncnc3)ccc2OC)C(=O)c2sc3c(F)ccc(F)c3c2Cl)CC1` [343 (R15)], the half-maximal effective concentration (EC50) in the assay on sonic hedgehog pathway [1], with sonic hedgehog pathway [2] and in the assay on sonic hedgehog pathway [3] was below 50 nM throughout.
For `CN[C@H]1CC[C@@H](N(Cc2cc(-c3ccccc3)ccc2OC)C(=O)c2sc3ccccc3c2Cl)CC1` [Compound R3, 3-Chloro-benzo[b]thiophene-2-carboxylic acid (4-methoxy-biphenyl-3-ylmethyl)-(4-methylamino-cyclohexyl)-amide hydrochloride], the results for the concentration for a half-maximal effect (EC50) in the assay with sonic hedgehog pathway [1], in the assay with sonic hedgehog pathway [2] and in the assay on sonic hedgehog pathway [3] were below 50 nM, 50 to 250 nM and 50 to 250 nM, respectively.
With `CN[C@H]1CC[C@@H](N(Cc2cc(-c3ccnc(N(C)C)c3)ccc2OC)C(=O)c2sc3c(F)ccc(F)c3c2Cl)CC1` [Compound 358, 3-Chloro-4,7-difluoro-benzo[b]thiophene-2-carboxylic acid [5-(2-dimethylamino-pyridin-4-yl)-2-methoxy-benzyl]-(4-methylamino-cyclohexyl)-amide dihydrochloride], the EC50 in the assay with sonic hedgehog pathway [1], in the assay on sonic hedgehog pathway [2] and in the assay with sonic hedgehog pathway [3] was below 50 nM in each case.
As to `CCOc1ccc(-c2ccc(C)nc2)cc1CN(C(=O)c1sc2ccccc2c1Cl)[C@H]1CC[C@@H](NC)CC1` [Compound R4, 3-Chloro-benzo[b]thiophene-2-carboxylic acid [2-ethoxy-5-(6-methyl-pyridin-3-yl)-benzyl]-(4-methylamino-cyclohexyl)-amide dihydrochloride], the EC50 in the assay on sonic hedgehog pathway [1] and in the assay with sonic hedgehog pathway [3] was 50 to 250 nM in each case.
Regarding `CN[C@H]1CC[C@@H](N(Cc2cc(-c3ccc(C(N)=O)cc3)ccc2OC)C(=O)c2sc3c(F)ccc(F)c3c2Cl)CC1` [Compound R8, 3-Chloro-4,7-difluoro-benzo[b]thiophene-2-carboxylic acid (4′-carbamoyl-4-methoxy-biphenyl-3-ylmethyl)-(4-methylamino-cyclohexyl)-amide hydrochloride], the EC50 in the assay with sonic hedgehog pathway [1] and in the assay on sonic hedgehog pathway [3] was below 50 nM in each case.
For the molecule `CN[C@H]1CC[C@H](N(Cc2cc(-c3ccc(C)nc3)ccc2OC)C(=O)c2sc3cccc(F)c3c2Cl)CC1` [Compound 406, 3-Chloro-4-fluoro-benzo[b]thiophene-2-carboxylic acid [2-methoxy-5-(6-methyl-pyridin-3-yl)-benzyl]-(4-methylamino-cyclohexyl)-amide dihydrochloride], the EC50 in the assay on sonic hedgehog pathway [1] is below 50 nM; in the assay with sonic hedgehog pathway [3], 50 to 250 nM.
The like results for `CN[C@H]1CC[C@@H](N(Cc2cc(-c3ccnc(C)c3)ccc2OC)C(=O)c2sc3ccccc3c2Cl)CC1` [331 (R11)] were, in that order, below 50 nM and below 50 nM.
Consider `CCOc1ccc(-c2ccc(C(=O)C(F)(F)F)cc2)cc1CN(C(=O)c1sc2c(F)ccc(F)c2c1Cl)[C@H]1CC[C@@H](NC)CC1` [Compound 341, 3-Chloro-4,7-difluoro-benzo[b]thiophene-2-carboxylic acid [4-ethoxy-4′-(2,2,2-trifluoro-acetyl)-biphenyl-3-ylmethyl]-(4-methylamino-cyclohexyl)-amide trifluoroacetate], for which the EC50 was below 50 nM in the assay on sonic hedgehog pathway [1] and 50 to 250 nM in the assay with sonic hedgehog pathway [3].
The corresponding values for `CN[C@H]1CC[C@@H](N(Cc2cc(-c3ccc(S(C)(=O)=O)cc3)ccc2OC)C(=O)c2sc3ccccc3c2Cl)CC1` [Compound R7, 3-Chloro-benzo[b]thiophene-2-carboxylic acid (4′-methanesulfonyl-4-methoxy-biphenyl-3-ylmethyl)-(4-methylamino-cyclohexyl)-amide hydrochloride] are below 50 nM and below 50 nM.
The like results for `CCOc1ccc(-c2ccc(N(C)C)nc2)cc1CN(C(=O)c1sc2ccccc2c1Cl)[C@H]1CC[C@H](NC)CC1` [Compound 404, 3-Chloro-benzo[b]thiophene-2-carboxylic acid [5-(6-dimethylamino-pyridin-3-yl)-2-ethoxy-benzyl]-(4-methylamino-cyclohexyl)-amide bis(trifluoroacetate)] were, in that order, 1000 to 2500 nM and 250 to 1000 nM.
The corresponding values for `CCOc1ccc(-c2ccc(N)nc2)cc1CN(C(=O)c1sc2ccccc2c1Cl)[C@H]1CC[C@H](NC)CC1` [Compound 396, 3-Chloro-benzo[b]thiophene-2-carboxylic acid [2-ethoxy-5-(6-amino-pyridin-3-yl)-benzyl]-(4-methylamino-cyclohexyl)-amide dihydrochloride] are 250 to 1000 nM and 50 to 250 nM.
With `CN[C@H]1CC[C@@H](N(Cc2cc(-c3ccnc(C(=O)O)c3)ccc2OC)C(=O)c2sc3c(F)ccc(F)c3c2Cl)CC1` [Compound R6, 4-(3-{[(3-Chloro-4,7-difluoro-benzo[b]thiophene-2-carbonyl)-(4-methylamino-cyclohexyl)-amino]-methyl}-4-methoxy-phenyl)-pyridine-2-carboxylic acid bis(trifluoroacetate)], the EC50 in the assay with sonic hedgehog pathway [1] and with sonic hedgehog pathway [3] was 50 to 250 nM each time.
For `CCOc1ccc(-c2ccc(C#N)cc2)cc1CN(C(=O)c1sc2ccccc2c1Cl)[C@H]1CC[C@@H](NC)CC1` [Compound R2, 3-Chloro-benzo[b]thiophene-2-carboxylic acid (4′-cyano-4-ethoxy-biphenyl-3-ylmethyl)-(4-methylamino-cyclohexyl)-amide hydrochloride], the EC50 in the assay with sonic hedgehog pathway [1] and in the assay with sonic hedgehog pathway [3] was 50 to 250 nM each time.
